This note sets out measurements from PubChem BioAssay (NCI).

In general, TGI refers to the concentration at which net growth stops. The low end stands for more potent growth arrest, the high end for less potent growth arrest.

Some test systems named below: SNB-19 CNS; MDA-MB-435; SF-539 CNS; HT29 colon; NCI-H226 lung; HCT-15 colon; NCI-H522 lung; MDA-N; SK-MEL-5 melanoma; SR leukemia.
Holding throughout (experiment): DTP human tumour cell line panel, 48 h

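The compound was tested at five concentrations on cells cultured in 96-well plates, with a 48-hour exposure period. The concentration for full growth arrest is given as TGI.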

For `COc1ccc(-c2c(C#N)c(S)n(NS(=O)(=O)c3ccccc3)c(=O)c2C#N)cc1`, the TGI in the test on SNB-19 CNS was more than 100 µM; in the test with MDA-MB-435, more than 100 µM; with SF-539 CNS, 61.6 µM; in the test with HT29 colon, more than 100 µM; in the test on NCI-H226 lung, more than 100 µM; with HCT-15 colon it was more than 100 µM. Further, the TGI in the test on NCI-H522 lung was 73 µM; with MDA-N, more than 100 µM; with SK-MEL-5 melanoma, more than 100 µM; in the test on SR leukemia, 80.3 µM.

Turning to `CCN1CN(c2ccccc2)C2(CCN(CC(CC3OCCO3)c3ccc(F)cc3)CC2)C1=O` (stereo unspecified), the TGI is more than 92 µM in the test with SNB-19 CNS; 38.2 µM in the test on MDA-MB-435; 25.5 µM in the test with SF-539 CNS; 5.69 µM with HT29 colon; 65 µM in the test with NCI-H226 lung; more than 67.5 µM with HCT-15 colon. The TGI in the test with NCI-H522 lung is 26.6 µM; with MDA-N, more than 26.3 µM; with SK-MEL-5 melanoma it was 15.2 µM; in the test with SR leukemia, more than 100 µM.

Regarding `OC1CSc2nc3ccccc3n2C1` (stereo unspecified), the TGI in the test with SNB-19 CNS, in the test on MDA-MB-435, in the test with SF-539 CNS, in the test on HT29 colon, in the test on NCI-H226 lung and in the test on HCT-15 colon was more than 100 µM each time. In addition, the total growth inhibition concentration (TGI) with MDA-N, in the test with SK-MEL-5 melanoma and in the test with SR leukemia was more than 100 µM each time.

With `N#Cc1c(O)c(/C=N/c2ncccn2)c(=O)n2c1[nH]c1ccccc12`, the TGI with SNB-19 CNS, in the test with MDA-MB-435, in the test on SF-539 CNS, in the test with HT29 colon, with NCI-H226 lung and in the test on HCT-15 colon was more than 100 µM in each case. Also, the TGI with NCI-H522 lung, in the test with MDA-N, with SK-MEL-5 melanoma and in the test on SR leukemia was more than 100 µM in each case.

For `CC(=O)Oc1ccc2c3c1O[C@H]1[C@H](O)CC[C@@]4(O)[C@@H](C2)N(C)CC[C@]314`, the TGI in the test on SNB-19 CNS, in the test with MDA-MB-435, with SF-539 CNS, with HT29 colon, with NCI-H226 lung and with HCT-15 colon was more than 100 µM in each case. The total growth inhibition concentration (TGI) in the test on NCI-H522 lung, in the test with MDA-N, with SK-MEL-5 melanoma and in the test with SR leukemia was more than 100 µM in each case.

Regarding `Cc1ccc(N(C)S(=O)(=O)c2ccccc2[N+](=O)[O-])cc1`, the TGI in the test with SNB-19 CNS, with MDA-MB-435, in the test with SF-539 CNS, with HT29 colon, in the test on NCI-H226 lung and with HCT-15 colon was more than 100 µM each time. Besides, the TGI in the test with NCI-H522 lung is 94.6 µM; with MDA-N, more than 100 µM; with SR leukemia, more than 100 µM.

Turning to `CCO/C=N/C1=C(C#N)SC2=N/C(=C\c3ccccc3)C(=O)N21`, the TGI with SNB-19 CNS, in the test on MDA-MB-435, with SF-539 CNS, in the test on HT29 colon, with NCI-H226 lung and in the test with HCT-15 colon was more than 100 µM in each case. Besides, the TGI with NCI-H522 lung is more than 100 µM; with MDA-N, more than 100 µM; in the test with SK-MEL-5 melanoma, more than 100 µM; with SR leukemia, more than 93.8 µM.

For the compound `COC(=O)C12OC3CO[Si](C(C)C)(C(C)C)O[Si](C(C)C)(C(C)C)OC3C1Oc1nc(=O)ccn12` (stereo unspecified), the TGI with SNB-19 CNS came to 31.2 µM; in the test with MDA-MB-435 it was 31.3 µM; in the test on SF-539 CNS it was 30.2 µM; in the test on HT29 colon it was 29.3 µM; with NCI-H226 lung, 30.4 µM; in the test on HCT-15 colon, 30.1 µM. In addition, the results for the TGI in the test with MDA-N, in the test with SK-MEL-5 melanoma and in the test on SR leukemia were 32.7 µM, 29.7 µM and 32 µM, respectively.

Regarding `CCOP(=O)(OCC)OC1c2[nH]cc(C(=O)OCc3ccccc3)c2-c2cc(C(=O)OC)[nH]c2C1OC` (stereo unspecified), the TGI is more than 100 µM in the test on SNB-19 CNS; more than 100 µM in the test on MDA-MB-435; more than 43.7 µM with SF-539 CNS; more than 48.4 µM with HT29 colon; 58.3 µM in the test on NCI-H226 lung; more than 100 µM with HCT-15 colon. Also, the TGI in the test on NCI-H522 lung was 29.1 µM; in the test on MDA-N it was more than 100 µM; in the test with SK-MEL-5 melanoma it was more than 82.8 µM; with SR leukemia it was more than 100 µM.

For the compound `CN(C)Cc1cc(N=Nc2ccc(Cl)cc2)cc(CN(C)C)c1O`, the TGI in the test on SNB-19 CNS worked out at 25.5 µM; with MDA-MB-435, 24.6 µM; in the test on SF-539 CNS, 23.2 µM; with HT29 colon, 19 µM; in the test with NCI-H226 lung it was 17.7 µM; in the test with HCT-15 colon, 21 µM. In addition, the TGI turned out to be 5.97 µM with NCI-H522 lung, 29.2 µM in the test with MDA-N, 21.1 µM with SK-MEL-5 melanoma and 22.8 µM in the test on SR leukemia.

On to `CC1(C)[C@@H]2C[C@H]1c1cnc(-c3ccccn3)cc1C2CCCCC[C@@H]1c2cc(-c3ccccn3)ncc2[C@@H]2C[C@H]1C2(C)C` (stereo partly specified), for which the TGI with SNB-19 CNS was more than 100 µM; in the test on MDA-MB-435 it was more than 100 µM; with SF-539 CNS, 0.456 µM; in the test on HT29 colon, more than 33.3 µM; in the test with NCI-H226 lung it was 7.53 µM; in the test on HCT-15 colon it was more than 100 µM. Further, the TGI in the test on NCI-H522 lung was more than 100 µM; in the test with MDA-N, 97.1 µM; in the test on SK-MEL-5 melanoma it was more than 38.5 µM; with SR leukemia it was more than 100 µM.

`CC1=C(C(=O)N[C@@H](CC(C)C)C(=O)O)N2C(=O)[C@@H](NC(=O)C(N)c3ccccc3)[C@H]2SC1` (stereo partly specified): the TGI in the test on SNB-19 CNS, in the test on MDA-MB-435, in the test with SF-539 CNS, in the test on NCI-H226 lung, in the test with HCT-15 colon and in the test with NCI-H522 lung was more than 100 µM each time. In addition, the TGI in the test on MDA-N, in the test on SK-MEL-5 melanoma and in the test with SR leukemia was more than 100 µM throughout.

Take `O=C1CC(=O)NC(=NNS(=O)(=O)c2ccc(Cl)cc2)N1`: the TGI in the test with SNB-19 CNS, in the test with MDA-MB-435, in the test with SF-539 CNS, in the test on HT29 colon, in the test on NCI-H226 lung and in the test with HCT-15 colon was more than 100 µM each time. Also, the concentration for total growth inhibition (TGI) in the test with NCI-H522 lung, with MDA-N, in the test with SK-MEL-5 melanoma and with SR leukemia was more than 100 µM each time.
